Drawing on DBAASP, this text covers MIC for ten compounds.

Holding throughout (test): ≥ marks a high value that may be exact or a test limit, other limits are often not marked, values filed in µg/mL are converted to µM
Experiment [1] concerns Escherichia coli K12 MG1655.
In experiment [2] the test system is Escherichia coli UTI89.
Experiment [3] deals with Salmonella enterica subsp. enterica serovar Typhimurium ATCC 14028.
The subject of experiment [4] is Staphylococcus epidermidis.
The test system of experiment [5] is Enterococcus faecalis ATCC 19433.
Experiment [6] concerns Escherichia coli ATCC 25922.
Experiment [7] has as its system Staphylococcus aureus LAC.
Experiment [8] concerns Pseudomonas aeruginosa ATCC 15442.
Experiment [9] concerns Staphylococcus aureus ATCC 25923.
The subject of experiment [10] is Staphylococcus aureus ATCC 29213.
Experiment [11] has as its system Staphylococcus aureus ATCC 6538.
Experiment [12] deals with Staphylococcus epidermidis RP62A.
Experiment [13] concerns Escherichia coli BL21.
In experiment [14] the test system is Pseudomonas syringae.
Experiment [15] relates to Streptococcus pyogenes GAS M1T1.
For experiment [16], the system named is Xanthomonas axonopodis pv. phaseoli ATCC 9563.
Experiment [17] has as its system Acinetobacter baumannii ATCC 15308.
In experiment [18] the test system is Citrobacter sp.
Experiment [19] has as its system Enterobacter cloacae.
Experiment [20] relates to Klebsiella pneumoniae.
For experiment [21], the system named is Staphylococcus aureus.
Experiment [22] has as its system Streptococcus pneumoniae.

SMILES strings stand for the structures. ≈ marks a conversion by molar mass, not a printed value.

Turning to `CC[C@H](C)[C@H](NC(=O)[C@H](CCCCN)NC(=O)[C@H](CCC(N)=O)NC(=O)[C@H](Cc1c[nH]c2ccccc12)NC(=O)[C@@H](NC(=O)[C@H](CCCCN)NC(=O)[C@@H](N)CCCCN)[C@@H](C)CC)C(=O)N[C@@H](CCCCN)C(=O)N[C@@H](CC(N)=O)C(=O)N[C@@H](Cc1ccccc1)C(=O)N[C@@H](Cc1ccccc1)C(=O)N[C@@H](CCCN=C(N)N)C(=O)N[C@@H](CCCCN)C(=O)N[C@@H](CC(C)C)C(=O)O` [KKIWQKIKNFFRKL], the MIC (as a rule, the least concentration at which growth counts as inhibited) in experiment [1] was at least 50 µM; in experiment [2], 25 µM (≈ 46.9 µg/mL); in experiment [3], over 50 µM; in experiment [4], 12.5 µM (≈ 23.5 µg/mL).
Consider `CC[C@@H](C)[C@@H](NC(=O)[C@@H](CCCN=C(N)N)NC(=O)[C@@H](CCCN=C(N)N)NC(=O)[C@@H](Cc1c[nH]c2ccccc12)NC(=O)[C@@H](CCC(N)=O)NC(=O)[C@H](N)C(C)C)C(=O)N[C@H](CCCN=C(N)N)C(=O)N[C@@H](C(=O)N[C@H](Cc1c[nH]c2ccccc12)C(=O)N[C@@H](C(=O)N[C@@H](C(=O)N[C@H](CCCN=C(N)N)C(=O)O)[C@H](C)CC)C(C)C)C(C)C` [VQWRRIRVWVIR], for which the MIC in experiment [5] was at least 154 µM.
Consider `NC(N)=NCCC[C@H](NC(=O)[C@H](CCCN=C(N)N)NC(=O)[C@H](CCCN=C(N)N)NC(=O)[C@H](CCCN=C(N)N)NC(=O)[C@H](Cc1ccc(O)cc1)NC(=O)[C@H](Cc1ccc(O)cc1)NC(=O)[C@H](Cc1ccc(O)cc1)NC(=O)[C@@H](N)Cc1ccc(O)cc1)C(=O)O` [YYYYRRRR], for which the values for the MIC in experiment [6] and in [7] were over 98.8 µM and at least 98.8 µM, respectively.
As for `CC[C@H](C)[C@H](NC(=O)[C@H](CCCCN)NC(=O)[C@H](CCC(N)=O)NC(=O)[C@H](Cc1c[nH]c2ccccc12)NC(=O)[C@@H](NC(=O)[C@H](CCCCN)NC(=O)[C@@H](N)CCCCN)[C@@H](C)CC)C(=O)N[C@@H](CCCN=C(N)N)C(=O)N[C@@H](CC(N)=O)C(=O)N[C@@H](Cc1ccccc1)C(=O)N[C@@H](Cc1ccccc1)C(=O)N[C@@H](CCC(N)=O)C(=O)N[C@@H](CCCCN)C(=O)N[C@@H](CC(C)C)C(=O)O` [KKIWQKIRNFFQKL], the MIC was 12.5 µM (≈ 23.5 µg/mL) in [1], 12.5 µM (≈ 23.5 µg/mL) in experiment [2], over 50 µM in experiment [3] and at least 50 µM in experiment [4].
As to `CC(C)C[C@H](NC(=O)[C@H](CCCCN)NC(=O)[C@H](CO)NC(=O)[C@H](CCCCN)NC(=O)[C@H](CC(=O)O)NC(=O)[C@H](Cc1ccccc1)NC(=O)[C@H](CO)NC(=O)[C@H](C)NC(=O)[C@@H](NC(=O)[C@@H](N)CCC(=O)O)C(C)C)C(=O)N[C@@H](CCCCN)C(=O)O` [EVASFDKSKLK], the MIC in experiment [8] was at least 9990 µM; in experiment [9] it was 9990 µM (≈ 12500 µg/mL); in experiment [10], 9990 µM (≈ 12500 µg/mL); in experiment [11], 9990 µM (≈ 12500 µg/mL); in experiment [12], at least 4950 µM.
With `CC[C@H](C)[C@H](NC(=O)[C@H](CCC(=O)O)NC(=O)[C@H](CC(N)=O)NC(=O)[C@H](CCCCN)NC(=O)[C@H](CC(C)C)NC(=O)[C@H](Cc1ccc(O)cc1)NC(=O)[C@H](CCC(N)=O)NC(=O)[C@H](CCCN=C(N)N)NC(=O)[C@@H](NC(=O)[C@@H](NC(=O)[C@H](CCCCN)NC(=O)[C@H](CCCCN)NC(=O)[C@H](Cc1c[nH]c2ccccc12)NC(=O)[C@H](C)N)[C@@H](C)O)[C@@H](C)CC)C(=O)N[C@@H](CCCCN)C(=O)N[C@@H](CCCCN)C(=O)N[C@@H](CCCCN)C(=O)N[C@@H](Cc1c[nH]c2ccccc12)C(=O)N[C@@H](CCCN=C(N)N)C(=O)N[C@@H](CCCCN)C(=O)N[C@@H](C)C(=O)N[C@H](C(=O)N[C@H](C(=O)N[C@@H](C)C(=O)N[C@@H](Cc1c[nH]c2ccccc12)C(=O)O)[C@@H](C)CC)C(C)C` [AWKKTIRQYLKNEIKKKWRKAVIAW], the MIC came to 2 µM (≈ 6.37 µg/mL) in [13], 8 µM (≈ 25.5 µg/mL) in [14], 8 µM (≈ 25.5 µg/mL) in experiment [15] and 1 µM (≈ 3.19 µg/mL) in experiment [16].
In the case of `CC[C@H](C)[C@H](NC(=O)[C@H](CCSC)NC(=O)[C@H](C)NC(=O)[C@@H]1CCCN1C(=O)[C@@H](NC(=O)[C@H](CCCN=C(N)N)NC(=O)[C@H](CCCCN)NC(=O)[C@@H](NC(=O)[C@H](CC(C)C)NC(=O)CNC(=O)CNC(=O)[C@H](CC(C)C)NC(=O)[C@@H](N)Cc1ccccc1)[C@@H](C)CC)C(C)C)C(=O)N[C@H]1CSSC[C@@H](C(=O)O)NC(=O)[C@H](CCCCN)NC(=O)[C@H](CCCCN)NC(=O)[C@H](CCCN=C(N)N)NC(=O)[C@H](C(C)C)NC(=O)[C@H](C)NC1=O` [FLGGLIKRVPAMICAVRKKC], the MIC is at least 113 µM in experiment [17]; at least 113 µM in [18]; at least 113 µM in experiment [19]; over 113 µM in [6]; over 113 µM in [20]; at least 113 µM in experiment [8]. Moreover, the MIC in experiment [9] is over 113 µM; in [21] it was over 113 µM; in experiment [22], at least 113 µM.
For `CC[C@H](C)[C@H](N)C(=O)N[C@H](C(=O)N[C@H](C(=O)N[C@H](C(=O)N[C@@H](CCCN=C(N)N)C(=O)N[C@@H](CCCN=C(N)N)C(=O)N[C@@H](CCCN=C(N)N)C(=O)N[C@@H](CCCN=C(N)N)C(=O)O)[C@@H](C)CC)[C@@H](C)CC)[C@@H](C)CC` [IIIIRRRR], the results for the MIC in experiment [6] and in experiment [7] were over 117 µM and at least 117 µM, respectively.
For `CC(C)C[C@H](NC(=O)[C@@H](N)CCCN=C(N)N)C(=O)N1CCC[C@H]1C(=O)N[C@@H](Cc1c[nH]c2ccccc12)C(=O)N[C@@H](CCCN=C(N)N)C(=O)N[C@@H](Cc1c[nH]c2ccccc12)C(=O)N1CCC[C@H]1C(=O)N[C@@H](CCCN=C(N)N)C(=O)N[C@@H](CCCN=C(N)N)C(=O)N1CCC[C@H]1C(=O)N[C@@H](Cc1c[nH]c2ccccc12)C(=O)N[C@@H](CCCN=C(N)N)C(=O)N[C@@H](CCCN=C(N)N)C(N)=O` [RLPWRWPRRPWRR], the minimum inhibitory concentration (MIC) in experiment [17] is at least 130 µM; in [18], at least 130 µM; in experiment [19] it was at least 130 µM; in [6], 130 µM (≈ 250 µg/mL); in experiment [20] it was over 130 µM; in experiment [8] it was at least 65.2 µM. Besides, the values for the MIC in experiment [9], in experiment [21] and in experiment [22] were 65.2 µM (≈ 125 µg/mL), 130 µM (≈ 250 µg/mL) and at least 130 µM, respectively.
Take `CC[C@H](C)[C@H](NC(=O)[C@@H](N)CCC(=O)O)C(=O)N[C@@H](CCC(=O)O)C(=O)N[C@@H](CCCCN)C(=O)N[C@@H](Cc1ccccc1)C(=O)N[C@@H](CC(=O)O)C(=O)N[C@@H](CCCCN)C(=O)N[C@@H](CO)C(=O)N[C@@H](CCCCN)C(=O)N[C@@H](CC(C)C)C(=O)N[C@@H](CCCCN)C(=O)O` [EIEKFDKSKLK]: the MIC in experiment [8] was at least 9160 µM; in [9], 9160 µM (≈ 12500 µg/mL); in experiment [10], 4540 µM (≈ 6200 µg/mL); in [11], 9160 µM (≈ 12500 µg/mL); in experiment [12] it was at least 9160 µM.
